One may read the EC50 as the concentration that produces a half-maximal response. Low readings indicate higher potency in that assay, high ones lower potency in that assay.

The text below walks through data of patent publication US20110172147A1, “NEUROPEPTIDE-2 RECEPTOR (Y-2R) AGONISTS” (priority 2009, published 2011).

What all share (format): cell-based
One assay concerns the target T1, Y1R (Homo sapiens, UniProt P25929).
T1 sequence (P25929 1-384): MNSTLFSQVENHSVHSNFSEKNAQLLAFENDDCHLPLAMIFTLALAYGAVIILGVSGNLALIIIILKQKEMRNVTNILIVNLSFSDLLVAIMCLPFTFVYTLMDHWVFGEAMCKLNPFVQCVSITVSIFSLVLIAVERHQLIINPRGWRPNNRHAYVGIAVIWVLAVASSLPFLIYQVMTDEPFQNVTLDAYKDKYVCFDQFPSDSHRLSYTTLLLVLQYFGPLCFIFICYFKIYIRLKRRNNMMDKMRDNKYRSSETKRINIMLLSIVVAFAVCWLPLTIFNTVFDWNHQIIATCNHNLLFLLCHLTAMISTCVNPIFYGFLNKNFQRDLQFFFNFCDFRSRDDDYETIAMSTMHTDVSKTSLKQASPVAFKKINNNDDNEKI
As to the kind of experiment: CaFlux Assay (FLIPR), Y1R.

The target in another assay is Y4R (Homo sapiens, UniProt P50391). The experiment in a line: CaFlux Assay (FLIPR), Y4R.
The target of a further assay is T2, Y5R (Homo sapiens, UniProt Q15761).
T2 sequence (Q15761 1-445): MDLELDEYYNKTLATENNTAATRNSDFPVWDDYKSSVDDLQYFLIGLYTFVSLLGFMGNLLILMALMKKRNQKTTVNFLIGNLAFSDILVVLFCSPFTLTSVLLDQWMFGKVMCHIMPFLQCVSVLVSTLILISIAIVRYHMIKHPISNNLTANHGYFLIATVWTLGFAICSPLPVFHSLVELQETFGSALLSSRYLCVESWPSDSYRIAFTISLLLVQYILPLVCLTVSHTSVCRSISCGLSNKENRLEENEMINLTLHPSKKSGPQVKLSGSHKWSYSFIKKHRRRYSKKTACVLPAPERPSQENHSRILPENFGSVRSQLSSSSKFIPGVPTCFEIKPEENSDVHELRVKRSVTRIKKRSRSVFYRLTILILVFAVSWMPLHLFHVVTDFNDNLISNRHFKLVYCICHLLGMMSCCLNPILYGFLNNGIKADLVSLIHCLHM
As to the kind of experiment: CaFlux Assay (FLIPR), Y5R.

For assay [1], the target named is T3, hNPY2R (Homo sapiens, UniProt P49146).
T3 sequence (P49146 1-381): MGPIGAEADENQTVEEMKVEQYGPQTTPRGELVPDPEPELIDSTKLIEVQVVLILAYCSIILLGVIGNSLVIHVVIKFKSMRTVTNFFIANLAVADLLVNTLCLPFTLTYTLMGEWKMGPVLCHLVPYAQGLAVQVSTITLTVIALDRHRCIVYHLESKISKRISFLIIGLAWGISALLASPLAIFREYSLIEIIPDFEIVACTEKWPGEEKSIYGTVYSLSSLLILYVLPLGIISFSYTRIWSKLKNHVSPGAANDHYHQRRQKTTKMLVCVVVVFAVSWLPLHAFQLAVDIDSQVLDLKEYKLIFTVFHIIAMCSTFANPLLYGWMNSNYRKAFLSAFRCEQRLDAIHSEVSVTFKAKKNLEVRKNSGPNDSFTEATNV
The experiment in a line: cAMP Agonist Assay, HEK293/hNPY2R. On the set-up: expressed in transfected cells; host or cells: HEK293/hNPY2R (G418 selection). In outline:
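Intracellular cAMP quantified by luminescent competitive ELISA after a 30 min room-temperature treatment of overnight-plated HEK293/hNPY2R cells with compound in medium containing 5 μM forskolin, 0.5 mM IBMX and 1.1% DMSO; four replicates per concentration.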

In assay [2] the target is T3, hNPY2R. As to the kind of experiment: CaFlux Assay (FLIPR), Y2R. On the set-up: expressed in transfected cells; host or cells: HEK-293 stably transfected with G protein chimera Gαqi9. In short, it runs like this: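 Read-out was the peak increase in Calcium-3 fluorescence on FLIPR, monitored 100 s after compound addition, with each well's pre-stimulation reading as zero and data given as % of the positive control's maximal response. Cells were HEK-293 stably carrying Gαqi9 plus receptor.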

Chain of Y4R (P50391 whole entry): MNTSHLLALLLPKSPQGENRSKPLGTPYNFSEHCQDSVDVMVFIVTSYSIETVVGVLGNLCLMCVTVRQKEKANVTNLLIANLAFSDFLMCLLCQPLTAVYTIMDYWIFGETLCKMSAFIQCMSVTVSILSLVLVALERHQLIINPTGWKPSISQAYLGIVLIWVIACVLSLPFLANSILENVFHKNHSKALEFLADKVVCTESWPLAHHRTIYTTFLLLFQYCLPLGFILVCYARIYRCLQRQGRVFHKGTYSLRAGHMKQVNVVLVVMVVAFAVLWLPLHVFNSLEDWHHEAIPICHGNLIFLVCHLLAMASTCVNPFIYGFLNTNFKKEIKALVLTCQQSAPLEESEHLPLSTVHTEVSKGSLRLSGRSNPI

For the compound `CCCCCCCCCCCCCCCC(=O)NCCCCCC(=O)NCCCCCC(=O)N[C@H](C(=O)N[C@@H](CCCCNC(=O)CCOCCOCCOCCOCCOCCOCCOCCOCCOCCOCCOCCOCCOCCOCCOCCOC)C(=O)N1CCN(c2ccc3ncn(CC(=O)N[C@@H](CCCNC(=N)N)C(=O)N[C@@H](Cc4c[nH]cn4)C(=O)N[C@@H](Cc4ccc(O)cc4)C(=O)N[C@@H](CC(C)C)C(=O)N[C@@H](CC(N)=O)C(=O)N[C@@H](Cc4c[nH]c5ccccc45)C(=O)N[C@H](C(=O)N[C@H](C(=O)N[C@@H](CCCNC(=N)N)C(=O)N[C@@H](CCC(N)=O)C(=O)N(C)[C@@H](CCCNC(=N)N)C(=O)N[C@@H](Cc4ccc(O)cc4)C(N)=O)[C@@H](C)O)C(C)C)c(=O)c3c2)CC1)[C@@H](C)CC` [Example 41], the EC50 on Y1R was above 6000 nM; on Y4R, above 6000 nM; at Y5R, 1320 nM; on hNPY2R [1], 0.17 nM; at hNPY2R [2] it was 0.04 nM.

`CCCCCCCCCCCCCCCC(=O)NCCCCCC(=O)NCCCCCC(=O)N[C@H](C(=O)N[C@@H](CCCCNC(=O)CCOCCOCCOCCOCCOCCOCCOCCOCCOCCOCCOCCOCCOCCOCCOCCOCCOCCOCCOCCOCCOCCOCCOCCOC)C(=O)N1CCN(c2ccc3ncn(CC(=O)N[C@@H](CCCNC(=N)N)C(=O)N[C@@H](Cc4c[nH]cn4)C(=O)N[C@@H](Cc4ccc(O)cc4)C(=O)N[C@@H](CC(C)C)C(=O)N[C@@H](CC(N)=O)C(=O)N[C@@H](Cc4c[nH]c5ccccc45)C(=O)N[C@H](C(=O)N[C@H](C(=O)N[C@@H](CCCNC(=N)N)C(=O)N[C@@H](CCC(N)=O)C(=O)N(C)[C@@H](CCCNC(=N)N)C(=O)N[C@@H](Cc4ccc(O)cc4)C(N)=O)[C@@H](C)O)C(C)C)c(=O)c3c2)CC1)[C@@H](C)CC` [Example 42]: the EC50 on Y1R was above 6000 nM; at Y4R, above 6000 nM; on Y5R, 815 nM; on hNPY2R [1], 0.13 nM; at hNPY2R [2] it was 0.069 nM.

With `CCCCCCCCCCCCCCCC(=O)NCCCCCC(=O)NCCCCCC(=O)N[C@@H](C(=O)N[C@@H](CCCCNC(=O)CCOCCOCCOCCOCCOCCOCCOCCOCCOCCOCCOCCOCCOCCOCCOCCOCCOCCOCCOCCOCCOCCOCCOCCOC)C(=O)N1CCN(c2ccc3ncn(CC(=O)N[C@@H](CCCNC(=N)N)C(=O)N[C@@H](Cc4c[nH]cn4)C(=O)N[C@@H](Cc4ccc(O)cc4)C(=O)N[C@@H](CC(C)C)C(=O)N[C@@H](CC(N)=O)C(=O)N[C@@H](Cc4c[nH]c5ccccc45)C(=O)N[C@H](C(=O)N[C@H](C(=O)N[C@@H](CCCNC(=N)N)C(=O)N[C@@H](CCC(N)=O)C(=O)N(C)[C@@H](CCCNC(=N)N)C(=O)N[C@@H](Cc4ccc(O)cc4)C(N)=O)[C@@H](C)O)C(C)C)c(=O)c3c2)CC1)[C@@H](C)CC` [Example 43], the EC50 at Y1R is above 6000 nM; on Y4R, above 6000 nM; at Y5R, 316 nM; on hNPY2R [1] it was 0.1 nM; at hNPY2R [2], 0.1 nM.

As for `CCCCCCCCCCCCCCCCCCCC(=O)N[C@@H](CCC(=O)O)C(=O)N[C@@H](CCC(=O)O)C(=O)N[C@H](C(=O)N[C@@H](CCCCNC(=O)CCOCCOCCOCCOCCOCCOCCOCCOC)C(=O)N1CCN(c2ccc3ncn(CC(=O)N[C@@H](CCCNC(N)=O)C(=O)N[C@@H](Cc4c[nH]cn4)C(=O)N[C@@H](Cc4ccc(O)cc4)C(=O)N[C@@H](CC(C)C)C(=O)N[C@@H](CC(N)=O)C(=O)N[C@@H](Cc4c[nH]c5ccccc45)C(=O)N[C@H](C(=O)N[C@H](C(=O)N[C@@H](CCCNC(=N)N)C(=O)N[C@@H](CCC(N)=O)C(=O)N(C)[C@@H](CCCNC(=N)N)C(=O)N[C@@H](Cc4ccc(O)cc4)C(N)=O)[C@@H](C)O)C(C)C)c(=O)c3c2)CC1)[C@@H](C)CC` [Example 44], the EC50 is above 6000 nM on Y1R; above 6000 nM at Y4R; above 6000 nM at Y5R; 0.43 nM at hNPY2R [1]; 0.313 nM at hNPY2R [2].

As for `CCCCCCCCCCCCCCCCCCCC(=O)N[C@@H](CCC(=O)O)C(=O)N[C@@H](CCC(=O)O)C(=O)N[C@H](C(=O)N[C@@H](CCCCNC(=O)CCOCCOCCOCCOCCOCCOCCOCCOCCOCCOCCOCCOC)C(=O)N1CCN(c2ccc3ncn(CC(=O)N[C@@H](CCCNC(N)=O)C(=O)N[C@@H](Cc4c[nH]cn4)C(=O)N[C@@H](Cc4ccc(O)cc4)C(=O)N[C@@H](CC(C)C)C(=O)N[C@@H](CC(N)=O)C(=O)N[C@@H](Cc4c[nH]c5ccccc45)C(=O)N[C@H](C(=O)N[C@H](C(=O)N[C@@H](CCCNC(=N)N)C(=O)N[C@@H](CCC(N)=O)C(=O)N(C)[C@@H](CCCNC(=N)N)C(=O)N[C@@H](Cc4ccc(O)cc4)C(N)=O)[C@@H](C)O)C(C)C)c(=O)c3c2)CC1)[C@@H](C)CC` [Example 45], the EC50 on Y1R is above 6000 nM; on Y4R, above 6000 nM; on Y5R, above 6000 nM; on hNPY2R [1], 0.3 nM; at hNPY2R [2], 0.158 nM.

On to `CCCCCCCCCCCCCCCCCCCC(=O)N[C@@H](CCC(=O)O)C(=O)N[C@@H](CCC(=O)O)C(=O)N[C@H](C(=O)N[C@@H](CCCCNC(=O)CCOCCOCCOCCOCCOCCOCCOCCOCCOCCOCCOCCOC)C(=O)N1CCN(c2ccc3ncn(CC(=O)N[C@@H](CCCNC(=N)N)C(=O)N[C@@H](Cc4c[nH]cn4)C(=O)N[C@@H](Cc4ccc(O)cc4)C(=O)N[C@@H](CC(C)C)C(=O)N[C@@H](CC(N)=O)C(=O)N[C@@H](Cc4c[nH]c5ccccc45)C(=O)N[C@H](C(=O)N[C@H](C(=O)N[C@@H](CCCNC(=N)N)C(=O)N[C@@H](CCC(N)=O)C(=O)N(C)[C@@H](CCCNC(=N)N)C(=O)N[C@@H](Cc4ccc(O)cc4)C(N)=O)[C@@H](C)O)C(C)C)c(=O)c3c2)CC1)[C@@H](C)CC` [Example 46], for which the concentration for a half-maximal effect (EC50) is above 9000 nM at Y1R; above 9000 nM on Y4R; 4580 nM on Y5R; 0.29 nM at hNPY2R [1]; 0.214 nM on hNPY2R [2].

Turning to `CCCCCCCCCCCCCCCCCCCC(=O)N[C@@H](CCC(=O)O)C(=O)N[C@@H](CCC(=O)O)C(=O)N[C@H](C(=O)N[C@@H](CCCCNC(=O)CCOCCOCCOCCOCCOCCOCCOCCOCCOCCOCCOCCOCCOCCOCCOCCOC)C(=O)N1CCN(c2ccc3ncn(CC(=O)N[C@@H](CCCNC(N)=O)C(=O)N[C@@H](Cc4c[nH]cn4)C(=O)N[C@@H](Cc4ccc(O)cc4)C(=O)N[C@@H](CC(C)C)C(=O)N[C@@H](CC(N)=O)C(=O)N[C@@H](Cc4c[nH]c5ccccc45)C(=O)N[C@H](C(=O)N[C@H](C(=O)N[C@@H](CCCNC(=N)N)C(=O)N[C@@H](CCC(N)=O)C(=O)N(C)[C@@H](CCCNC(=N)N)C(=O)N[C@@H](Cc4ccc(O)cc4)C(N)=O)[C@@H](C)O)C(C)C)c(=O)c3c2)CC1)[C@@H](C)CC` [Example 47], the EC50 is above 6000 nM on Y1R; above 6000 nM on Y4R; above 6000 nM on Y5R; 0.23 nM on hNPY2R [1]; 0.158 nM on hNPY2R [2].

Turning to `CCCCCCCCCCCCCCCCCCCC(=O)N[C@@H](CCC(=O)O)C(=O)N[C@@H](CCC(=O)O)C(=O)N[C@H](C(=O)N[C@@H](CCCCNC(=O)CCOCCOCCOCCOCCOCCOCCOCCOCCOCCOCCOCCOCCOCCOCCOCCOC)C(=O)N1CCN(c2ccc3ncn(CC(=O)N[C@@H](CCCNC(=N)N)C(=O)N[C@@H](Cc4c[nH]cn4)C(=O)N[C@@H](Cc4ccc(O)cc4)C(=O)N[C@@H](CC(C)C)C(=O)N[C@@H](CC(N)=O)C(=O)N[C@@H](Cc4c[nH]c5ccccc45)C(=O)N[C@H](C(=O)N[C@H](C(=O)N[C@@H](CCCNC(=N)N)C(=O)N[C@@H](CCC(N)=O)C(=O)N(C)[C@@H](CCCNC(=N)N)C(=O)N[C@@H](Cc4ccc(O)cc4)C(N)=O)[C@@H](C)O)C(C)C)c(=O)c3c2)CC1)[C@@H](C)CC` [Example 48], the concentration for a half-maximal effect (EC50) is above 9000 nM at Y1R; above 9000 nM at Y4R; 4320 nM on Y5R; 0.52 nM on hNPY2R [1]; 0.388 nM at hNPY2R [2].
